Test results from US20120277211A1, “METHODS AND COMPOSITIONS FOR THE TREATMENT OF PSYCHOTIC DISORDERS THROUGH THE IDENTIFICATION OF THE SULT4A1-1 HAPLOTYPE” (priority 2009, published 2012).
Marks after values point to notes of the source that are not given here.

Key:
[1] = tested on: African American schizophrenia patients; experiment: CATIE: change in total PANSS (LOCF) by SULT4A1-1 haplotype status, African Americans; format: in vivo, human; settings: for Number of individuals with change in total PANSS ≦−20% (responders) / Number of individuals with change in total PANSS ≧−20% (non-responders): LOCF
Protocol: The design of the CATIE study has been described in detail by others (Lieberman et al., 2005; Stroup et al., 2003). […] A total of 738 subjects consented to provide DNA for genetic study. […] Retrospective genetic analyses, judged to be exempt from human studies requirements by an IRB, were conducted in the current study. All tested patients were studied using well established clinical endpoints comparing baseline, intermediate, and last observation carried forward (LOCF) for the PANSS scores using CATIE data. […] To remove time on drug as a variable for the CATIE trial, analysis was limited to only those patients who were randomized to a different drug following the initial washout period (drug switchers).

[2] = tested on: Caucasian schizophrenia patients; experiment: CATIE: hospitalization due to exacerbation of psychosis by SULT4A1-1 status; format: in vivo, human
From the text: To assess if SULT4A1-1 status impacts the risk of hospitalization in Caucasians, the inventors assigned SULT4A1-1 status to each CATIE subject and evaluated hospitalization events due to exacerbation of psychosis. For this analysis, the inventors assigned a dichotomous value (positive or negative) for hospitalization status to subjects in each phase of the trial based on only the first hospitalization event for a given patient in that phase. Patients participating in Phases 1, 2, and/or 3 were included in the totals for the appropriate drug.
A Kaplan-Meier survival analysis was performed to determine whether there was a difference between the survival (hospitalization) rates for the SULT4A1-1 negative and SULT4A1-1 positive patient populations treated with each of the atypical antipsychotics. Survival plots model the fraction of the population that survived (i.e., no hospitalization event) as a function of time.

[3] = tested on: schizophrenia patients; experiment: CATIE: months of successful treatment measured by the CGI scale (TMSUCC1); format: in vivo, human
From the text: The CATIE clinical data set included Clinical Global Impression (CGI) Scale, an observer-provided assessment of the psychiatric health of the patient (Stroup et al., 2003; Guy 1976). Patients are rated with the CGI Scale from 1 to 7, with higher scores indicating greater severity of illness. The CATIE study provided a response variable that measured the time (in months) of successful treatment as measured by the CGI scale (“TMSUCC1” in the CATIE data).

[4] = tested on: Caucasian schizophrenia patients; experiment: CATIE: time to discontinuation for all causes by SULT4A1-1 status; format: in vivo, human
From the text: The primary endpoint for the CATIE study was time to discontinuation for all causes (Lieberman et al., 2005). Thus the inventors evaluated the effect of SULT41-1 status on this important parameter.

[5] = tested on: Caucasian schizophrenia patients; experiment: CATIE Phase I: change in total PANSS (LOCF) by SULT4A1-1 haplotype status, Caucasians; format: in vivo, human; settings: for Number of individuals with change in total PANSS ≦−20% (responders) / Number of individuals with change in total PANSS ≧−20% (non-responders) / Responders: CATIE Caucasians, LOCF; for Responders: change in PANSS ≦−20%; for Effect size: olanzapine SULT4A1-1+ vs comparator group / Mean difference (95% CI) in delta PANSS: olanzapine SULT4A1-1+ minus comparator group: comparator = labelled drug in SULT4A1-1+ patients
From the text: There are several different metrics for quantifying response in clinical trials of antipsychotic medications. The most commonly used psychometric instrument is the Positive and Negative Syndrome Scale (PANSS), a 30-item semi-quantitative instrument scored by clinical professionals (Kay et al., 1987). The greater the decrease in PANSS score, the better the clinical response. The most direct measure of clinical response is absolute change in PANSS score. In addition to absolute change, the improvement is often reported as a percentage change from baseline PANSS score.
A decrease of at least 20% in total PANSS is one commonly used threshold for response (Leucht et al., 2009).
The design of the CATIE study has been described in detail by others (Lieberman et al., 2005; Stroup et al., 2003). […] A total of 738 subjects consented to provide DNA for genetic study. […] Retrospective genetic analyses, judged to be exempt from human studies requirements by an IRB, were conducted in the current study.
All tested patients were studied using well established clinical endpoints comparing baseline, intermediate, and last observation carried forward (LOCF) for the PANSS scores using CATIE data. LOCF analysis is a commonly used clinical endpoint for clinical trials for neuropsychiatric drugs, with changes in PANSS scores of between negative 20% and negative 30% used as typical endpoints to indicate clinically significant response (Leucht et al., 2009). To remove time on drug as a variable for the CATIE trial, analysis was limited to only those patients who were randomized to a different drug following the initial washout period (drug switchers).
The CATIE clinical data set included baseline PANSS scores based on clinical assessments prior to initiation of the assigned therapy, but following the washout period for any patients previously on antipsychotic medication. Follow up PANSS data for the CATIE trial were collected at each visit as described in detail by others (Stroup et al., 2003).
Since follow-up on subjects was not done at uniform time intervals, analysis was done using the last observation for each patient in treatment Phase I of the trial as the measure of response (last observation carried forward, LOCF). Main effect and interaction terms between the SULT4A1-1 haplotype and drug therapy were included in the linear model. A pre-determined set of contrasts for differences in percent change PANSS by haplotype within each drug therapy (three comparisons) and by drug therapy within each haplotype (six comparisons) were evaluated, with adjustment for multiple-comparisons using the step-up false-discovery rate (FDR) controlling procedure (Benjamini and Hochberg, 1995). A sub-analysis omitting those patients who were randomized to the same antipsychotic drug therapy was also conducted.

[6] = tested on: unsegmented patient populations; settings: cited from earlier work
[7] = Unsegmented, Phases 1, 2 and/or 3, first event
[8] = SULT4A1-1 positive, randomized to a different drug

SMILES	Responders ([1]; SULT4A1-1 negative) [%]	Number of individuals with change in total PANSS ≦−20% (responders) ([1]; SULT4A1-1 negative)	Number of individuals with change in total PANSS ≧−20% (non-responders) ([1]; SULT4A1-1 negative)	Responders ([1]; SULT4A1-1 positive) [%]	Number of individuals with change in total PANSS ≦−20% (responders) ([1]; SULT4A1-1 positive)	Number of individuals with change in total PANSS ≧−20% (non-responders) ([1]; SULT4A1-1 positive)	HOSP, number of patients hospitalized ([2]; SULT4A1-1 negative)	HOSP, rate of hospitalization ([2]; SULT4A1-1 negative) [%]	HOSP, number of patients hospitalized ([2]; SULT4A1-1 positive)	HOSP, rate of hospitalization ([2]; SULT4A1-1 positive) [%]	HOSP, rate of hospitalization ([2]; Unsegmented) [%]	HOSP, number of patients hospitalized [2, 7]	Length of successful treatment (CGI Months), Mean ([3]; SULT4A1-1 negative) [Months]	Length of successful treatment (CGI Months), Mean ([3]; SULT4A1-1 positive)	Length of successful treatment (CGI Months), Mean ([3]; Unsegmented) [Months]	Time to discontinuation, mean ([4]; SULT4A1-1 negative)	Time to discontinuation, mean ([4]; SULT4A1-1 positive)	DELTA PANSS % (mean change in PANSS score from baseline to LOCF) ([5]; SULT4A1-1 negative)	Number of individuals with change in total PANSS ≦−20% (responders) ([5]; SULT4A1-1 negative)	Number of individuals with change in total PANSS ≧−20% (non-responders) ([5]; SULT4A1-1 negative)	other results
OCCN1CCN(CCCN2c3ccccc3Sc3ccc(Cl)cc32)CC1 [Perphenazine]	27.0	10	27	0	0	2	9	13.4	1	7.1	12.3	10	7.03	5.29 Months	6.72	10.6* Months	7.6** Months	−3*** %	16	47	Responders ([5]; SULT4A1-1 negative): 25.4%**; DELTA PANSS % (mean change in PANSS score from baseline to LOCF) ([5]; SULT4A1-1 positive): −10* %; Number of individuals with change in total PANSS ≧−20% (non-responders) ([5]; SULT4A1-1 positive): 9; Number of individuals with change in total PANSS ≦−20% (responders) [5, 8]: 5; Responders ([5]; SULT4A1-1 positive): 35.7%; Effect size: olanzapine SULT4A1-1+ vs comparator group [5]: 0.68; Mean difference (95% CI) in delta PANSS: olanzapine SULT4A1-1+ minus comparator group [5]: −14.2 (−29.8 to 1.4)
O=C1Cc2cc(CCN3CCN(c4nsc5ccccc45)CC3)c(Cl)cc2N1 [Ziprasidone]	15.4	4	22	0	0	3	11	13.4	2	7.1	11.8	13	4.51	8.36^d Months	5.36	8.2*** Months	11.7 Months	−4*** %	6	32	Kaplan-Meier: difference between survival (no hospitalization) rates of SULT4A1-1 negative and positive patients ([2]; per drug): not statistically significant; Effect Size vs. FGA ([6]; first generation antipsychotics, Davis et al. (2003)): −0.04; Effect Size vs. Placebo ([6]; meta-analysis, Leucht et al. (2009), negative = greater reduction in PANSS): −0.48; Mean difference in total PANSS score between olanzapine and labelled drug, Meta-analysis ([6]; unsegmented populations, Leucht et al. (2009)): −8.3; Mean difference in total PANSS score between olanzapine and labelled drug, CATIE SULT4A1-1+ ([5]; SULT4A1-1+): −17.9; Responders ([5]; SULT4A1-1 negative): 15.7%**; DELTA PANSS % (mean change in PANSS score from baseline to LOCF) ([5]; SULT4A1-1 positive): −8* %; Number of individuals with change in total PANSS ≧−20% (non-responders) ([5]; SULT4A1-1 positive): 7; Number of individuals with change in total PANSS ≦−20% (responders) [5, 8]: 3; Responders ([5]; SULT4A1-1 positive): 30.0%; Mean difference in total PANSS score between olanzapine and labelled drug, CATIE SULT4A1-1− ([5]; SULT4A1-1−): −2.1; Mean difference in total PANSS score between olanzapine and labelled drug, CATIE unsegmented ([5]; Unsegmented): −4.9; Effect size: olanzapine SULT4A1-1+ vs comparator group [5]: 0.77; Mean difference (95% CI) in delta PANSS: olanzapine SULT4A1-1+ minus comparator group [5]: −16.1 (−32.7 to 0.5); Effect Size attributable to SULT4A1-1 status in CATIE ([5]; olanzapine-treated SULT4A1-1 positive versus labelled drug-treated SULT4A1-1 positive): −0.77^b
